Results: ChEMBL document CHEMBL3217730, “Determination of structural requirements of influenza neuraminidase type A inhibitors and binding interaction analysis with the active site of A/H1N1 by 3D-QSAR CoMFA and CoMSIA modeling” (Medchemcomm, 2011)

Target: Neuraminidase (Influenza A virus, UniProt B4URF0)
Assay: Inhibition of Influenza virus neuraminidase A
Set-up: species or system unidentified influenza virus

Neuraminidase, sequence (B4URF0 whole entry): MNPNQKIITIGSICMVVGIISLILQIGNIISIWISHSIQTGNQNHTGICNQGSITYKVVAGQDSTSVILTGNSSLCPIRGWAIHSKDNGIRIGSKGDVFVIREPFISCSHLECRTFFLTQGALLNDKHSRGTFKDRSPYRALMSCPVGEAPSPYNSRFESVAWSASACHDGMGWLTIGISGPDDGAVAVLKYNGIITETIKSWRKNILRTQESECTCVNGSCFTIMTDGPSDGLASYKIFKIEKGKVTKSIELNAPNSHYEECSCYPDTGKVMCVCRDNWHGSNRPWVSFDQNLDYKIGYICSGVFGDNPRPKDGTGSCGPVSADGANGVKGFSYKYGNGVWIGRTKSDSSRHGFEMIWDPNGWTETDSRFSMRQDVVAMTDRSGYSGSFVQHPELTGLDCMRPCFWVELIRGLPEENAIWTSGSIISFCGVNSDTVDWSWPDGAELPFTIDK

Row | SMILES | IC50 (read-out: IC50) [µM] | IC50 (read-out: pIC50 (converted)) [µM] | pIC50
1 | CC[C@@H](C)O[C@@H]1C=C(C(=O)O)C[C@H](NC(=N)N)[C@H]1NC(C)=O | 0.5 | 0.0005 | –
2 | CC(=O)N[C@@H]1[C@@H](N)CC(C(=O)O)=C[C@H]1Oc1ccccc1 | 530 | 0.531 | –
3 | CCC(C)O[C@@H]1C=C(C(=O)O)C[C@H](N)[C@H]1NC(C)=O (stereo partly drawn) | 10 | – | –
4 | CCO[C@@H]1C=C(C(=O)O)C[C@H](N)[C@H]1NC(C)=O | 2000 | 2 | –
5 | CCCCCCC[C@H](CC)O[C@@H]1C=C(C(=O)O)C[C@H](N)[C@H]1NC(C)=O | 1 | 0.001 | –
6 | CCCO[C@@H]1C=C(C(=O)O)C[C@H](N=C(N)N)[C@H]1NC(C)=O | 2 | 0.002 | –
7 | CCCCCCCCCCO[C@@H]1C=C(C(=O)O)C[C@H](N)[C@H]1NC(C)=O | 600 | 0.601 | –
8 | C=CC[C@H](CC)O[C@@H]1C=C(C(=O)O)C[C@H](N)[C@H]1NC(C)=O | 1 | 0.001 | –
9 | CO[C@@H]1C=C(C(=O)O)C[C@H](N)[C@H]1NC(C)=O | 3700 | 3.71 | –
10 | CC(=O)N[C@H]1[C@H](O)C=C(C(=O)O)C[C@@H]1N=C(N)N | 100 | 0.1 | –
11 | CC[C@@H](CCC1CCCCC1)O[C@@H]1C=C(C(=O)O)C[C@H](N)[C@H]1NC(C)=O | 1 | 0.001 | –
12 | CCC(CC)C(=O)N1C[C@@H](N)[C@@H](C(=O)O)C1 | 22 | – | –
13 | CCN(CC)C(=O)N1C[C@@H](N)[C@@H](C(=O)O)C1 | 25 | – | –
14 | CCCN(CCC)C(=O)N1C[C@@H](N)[C@@H](C(=O)O)C1 | 32 | – | –
15 | CCN(C(=O)N1C[C@@H](N)[C@@H](C(=O)O)C1)C(C)C | 1.6 | 1.06 | –
16 | CC(C)N(C(=O)N1C[C@@H](N)[C@@H](C(=O)O)C1)C(C)C | 4 | – | –
17 | CC(C)N(CCO)C(=O)N1C[C@@H](N)[C@@H](C(=O)O)C1 | 21 | – | –
18 | CC(C)N(CCCC(=O)O)C(=O)N1C[C@@H](N)[C@@H](C(=O)O)C1 | 19 | – | –
19 | CC(C)N(CCN)C(=O)N1C[C@@H](N)[C@@H](C(=O)O)C1 | 46 | – | –
20 | CCN(C(=O)N1C[C@H](C(=O)O)[C@H](NC(=N)N)C1)C(C)C | 13 | – | –

Row | SMILES | IC50 (read-out: IC50) [µM] | IC50 (read-out: pIC50 (converted)) [µM] | pIC50
21 | CCN(C(=O)N1C[C@H](N)[C@H](C(=O)O)[C@@H]1CNC(C)=O)C(C)C | 7.5 | – | –
22 | CCC(=O)NC[C@H]1[C@@H](C(=O)O)[C@@H](N)CN1C(=O)N(CC)C(C)C | 16 | – | –
23 | C=CC(=O)NC[C@H]1[C@@H](C(=O)O)[C@@H](N)CN1C(=O)N(CC)C(C)C | 96 | – | –
24 | CCN(C(=O)N1C[C@H](N)[C@H](C(=O)O)[C@@H]1CNC(=O)C(F)(F)F)C(C)C | 0.28 | – | –
25 | CCN(C(=O)N1C[C@H](N)[C@H](C(=O)O)[C@@H]1CNS(C)(=O)=O)C(C)C | 130 | – | –
26 | CCC(CC)NC(=O)[C@@H](NC(C)=O)[C@H]1CC(C(=O)O)C[C@@H]1NC(=N)N (stereo partly drawn) | 0.06 | – | –
27 | CCC(CC)NC(=O)[C@H](NC(C)=O)[C@H]1CC(C(=O)O)C[C@@H]1NC(=N)N (stereo partly drawn) | 25 | – | –
28 | CCN(CC)C(=O)[C@@H](NC(C)=O)[C@H]1CC(C(=O)O)C[C@@H]1NC(=N)N (stereo partly drawn) | 0.07 | 0.00701 | –
29 | CCCN(CCC)C(=O)[C@@H](NC(C)=O)[C@H]1CC(C(=O)O)C[C@@H]1NC(=N)N (stereo partly drawn) | 0.043 | – | –
30 | CC[C@H](C)O[C@@H]1C=C(C(=O)O)C[C@H](N)[C@H]1NC(C)=O | 9 | 0.00902 | –
31 | CC[C@H](C)O[C@@H]1C=C(C(=O)O)C[C@H](NC(=N)N)[C@H]1NC(C)=O | 0.5 | 0.0005 | –
32 | CC(=O)N[C@@H]1[C@@H](N)CC(C(=O)O)=C[C@H]1OC(C)C | 0.001 | – | –
33 | CC(=O)N[C@H]1[C@H](OC(C)C)C(C)=C(C(=O)O)C[C@@H]1N | 2.3 | – | –
34 | CC(=O)N[C@H]1[C@H](OC(C)C)C(F)=C(C(=O)O)C[C@@H]1N | 0.003 | – | –
35 | CC(=O)N[C@@H]1[C@@H](N)[C@H](C)C(C(=O)O)=C[C@H]1OC(C)C | 1.5 | – | –
36 | CCCC[C@@H](NC(C)=O)[C@@H]1CC(C(=O)O)C[C@@H]1NC(=N)N (stereo partly drawn) | 0.013 | – | –
37 | CCCC[C@@H](NC(C)=O)[C@@H]1CC(C(=O)O)C[C@H]1NC(=N)N (stereo partly drawn) | 14.6 | – | –
38 | CCCN(CCC)C(=O)[C@@H](NC(C)=O)[C@H]1C[C@](O)(C(=O)O)C[C@@H]1NC(=N)N | 4.9 | – | –
39 | CCCN(CCC)C(=O)[C@@H](NC(C)=O)[C@H]1C[C@@](O)(C(=O)O)C[C@@H]1NC(=N)N | 2300 | – | –
40 | CCCCCCCCCO[C@@H]1C=C(C(=O)O)C[C@H](N)[C@H]1NC(C)=O | 210 | 0.21 | –

Row | SMILES | IC50 (read-out: IC50) [µM] | IC50 (read-out: pIC50 (converted)) [µM] | pIC50
41 | CC[C@@H](CC1CCCCC1)O[C@@H]1C=C(C(=O)O)C[C@H](N)[C@H]1NC(C)=O | 16 | 0.016 | –
42 | CC(C)N(CCCCC(=O)O)C(=O)N1C[C@@H](N)[C@@H](C(=O)O)C1 | 1.3 | – | –
43 | CC(C)N(CCc1ccccn1)C(=O)N1C[C@@H](N)[C@@H](C(=O)O)C1 | 1.3 | – | –
44 | CC[C@@H](Cc1ccccc1)O[C@@H]1C=C(C(=O)O)C[C@H](N)[C@H]1NC(C)=O | 620 | 0.621 | –
45 | CC(C)N(CCCO)C(=O)N1C[C@@H](N)[C@@H](C(=O)O)C1 | – | – | 5.677
46 | CC(C)N(CCCCCO)C(=O)N1C[C@@H](N)[C@@H](C(=O)O)C1 | 2 | – | –
47 | CC(=O)N[C@@H]1[C@@H](N)CC(C(=O)O)=C[C@H]1OC1CCCCC1 | 60 | 0.0601 | –
48 | CCCO[C@@H]1C=C(C(=O)O)C[C@H](N)[C@H]1NC(C)=O | 180 | 0.18 | –
49 | CC[C@H](CCc1ccccc1)O[C@@H]1C=C(C(=O)O)C[C@H](N)[C@H]1NC(C)=O | 12 | 0.012 | –
50 | CC(=O)N[C@@H]1[C@@H](N)CC(C(=O)O)=C[C@H]1OCC(C)C | 200 | 0.2 | –
51 | CCCCO[C@@H]1C=C(C(=O)O)C[C@H](N)[C@H]1NC(C)=O | 300 | 0.301 | –
52 | CC(=O)N[C@@H]1[C@@H](N)CC(C(=O)O)=C[C@H]1OCCCc1ccc(-c2ccccc2)cc1 | 90 | 0.0902 | –
53 | CC(=O)N[C@H]1[C@H](O)C=C(C(=O)O)C[C@@H]1N | 6300 | – | –
54 | CC[C@@H](CCc1ccccc1)O[C@@H]1C=C(C(=O)O)C[C@H](N)[C@H]1NC(C)=O | 0.3 | 0.000301 | –
55 | CCCCCCCCO[C@@H]1C=C(C(=O)O)C[C@H](N)[C@H]1NC(C)=O | 180 | 0.18 | –
56 | CCCCO[C@@H]1C=C(C(=O)O)C[C@H](N=C(N)N)[C@H]1NC(C)=O | 3 | 0.00301 | –
57 | CCCCCCCO[C@@H]1C=C(C(=O)O)C[C@H](N)[C@H]1NC(C)=O | 270 | 0.27 | –
58 | CCCCCCO[C@@H]1C=C(C(=O)O)C[C@H](N)[C@H]1NC(C)=O | 150 | 0.15 | –
59 | CCCCCO[C@@H]1C=C(C(=O)O)C[C@H](N)[C@H]1NC(C)=O | 200 | 0.2 | –
